Measured values published in patent US8969413B2.

Columns and labels:
human ρ1 GABAC receptors = target: T1, human ρ1 GABAC receptors (Homo sapiens, UniProt P24046); assay: GABAC receptor two-electrode voltage clamp in Xenopus laevis oocytes; format: cell-based
T1 construct: expressed in transfected cells; host or cells: Xenopus laevis oocytes injected with ρ1 mRNA
Method: Human ρ1 cDNA encapsulated in pcDNA1.1 was linearized with Not1. Linearized cDNA was transcribed to mRNA using the T7 “mMESSAGE mMACHINE” kit (Ambion Inc. Austin, Tex., USA) as previously described. […] Eur. J. Pharmacol. 2001, 430, 185-192. GABAC receptor activity assays were performed in oocytes harvested from Xenopus laevis (housed in the Department of Veterinary Science at the University of Sydney) and defolliculated. The oocytes were stored in ND96 solution (in mM) NaCl (96), KCl (2), MgCl2 (1), CaCl2 (1.8), HEPES (hemi-Na salt; 5) supplemented with sodium pyruvate (2.5), theophylline (0.5), and 50 μg/ml^−1 gentamycin for 2-5 days post-injection.
Electrophysiological methods were performed as previously described. Hertz L, Juurlink B H J, Hertz E, Fosmark H and Schousboe A. Preparation of Primary Cultures of Mouse (Rat) Astrocytes, in A Dissection and Tissue Culture Mnual of the Nervous System (Shahar A, de Vellis J, Vernadakis A and Haber B eds) pp 105-108, Alan R. Liss, Inc., New York, 1989 Stage V-VI oocytes were injected with 10 ng 50 nl^−1 of ρ1 mRNA and then stored at 16° C. Recordings of receptor activity were obtained for 2-5 days by a two-electrode voltage clamp by means of a Geneclamp 500 amplifier (Axon Instruments Inc., Foster City, Calif.), a MacLab 2e recorder (AD Instruments, Sydney, NSW), and Chart version 3.6.3 program. Oocytes were voltage clamped at −60 mV, and the preparation was continually perfused with ND96 solution at room temperature. […] Compound 2 (CPP-115) was tested on three oocytes from at least two harvests.

Mice [1] = assay: minimal clonic seizure (6 Hz) test; format: in vivo; details: Single IP drug dose, 3 seconds, corneal electrode; for ED50: Mus musculus, ip
From the text: Some clinically useful AEDs are ineffective in the standard MES and scMET tests but still have anticonvulsant activities in vivo. In order to identify potential AEDs with this profile, compounds may be tested in the minimal clonic seizure (6 Hz or ‘psychomotor’) test (Barton et al., 2001). […] Test compounds are pre-administered to mice via i.p. injection. At varying times, individual mice (four per time point) are challenged with sufficient current delivered through corneal electrodes to elicit a psychomotor seizure in 97% of animals (32 mA for 3 s) (Toman et al., 1952). Untreated mice will display seizures characterized by a minimal clonic phase followed by stereotyped, automatistic behaviors described originally as being similar to the aura of human patients with partial seizures. Animals not displaying this behavior are considered protected. The test may be evaluated quantitatively by measuring the responses at varying doses at a determined time of peak effect (TPE). This test may also be conducted at 22 and 44 mA if requested by ASP staff.

[2] = system: GABA transporters in neurons, astrocytes, or mammalian cells recombinantly expressing human or mouse transporter subtypes; assay: [3H]GABA uptake, all transporter systems; format: cell-based; details: 1 mM concentration
Method: tsA201 cells were cultured in GlutaMAX-I DMEM supplemented with 10% fetal bovine serum, penicillin (100 U/ml), and streptomycin (100 μg/ml) at 37° C. in a humidified atmosphere of 95% air and 5% CO2. […] J. Biol. Chem. 2007, 282, 19331-19341. […] Quantification was performed by using Microscint™ 20 scintillation fluid (PerkinElmer) and a Packard TopCount microplate scintillation counter.
Cortical astrocytes were cultured essentially as previously described. Hertz L, Juurlink B H J, Hertz E, Fosmark H and Schousboe A. Preparation of Primary Cultures of Mouse (Rat) Astrocytes, in A Dissection and Tissue Culture Manual of the Nervous System (Shahar A, de Vellis J, Vernadakis A and Haber B eds) pp 105-108, Alan R. Liss, Inc., New York, 1989 The neopallium was removed from new born NMRI mice (Taconic, Denmark) and passed through an 80 μm nylon sieve and cultured in modified Dulbecco's modified Eagle's medium with fetal calf serum. […]
Cortical neurons were cultured essentially as previously described by removing the neopallium of 15-day old NMRI embryos by dissection followed by mild trypsination. […] Radioactivity was measured using Microscint™ 20 scintillation fluid (PerkinElmer) and a Packard TopCount microplate scintillation counter.

Mice [3] = assay: maximal electrical shock (MES) model; format: in vivo; details: Single IP dose, 50 mA, 2 seconds, corneal electrode
From the text: The MES is a model for generalized tonic-clonic seizures and provides an indication of a compound's ability to prevent seizure spread when all neuronal circuits in the brain are maximally active. These seizures are highly reproducible and are electrophysiologically consistent with human seizures. For all tests based on MES convulsions, 60 Hz of alternating current (50 mA in mice) is delivered for 2 s by corneal electrodes which have been primed with an electrolyte solution containing an anesthetic agent (0.5% tetracaine HCL). Mice are tested at various intervals following doses of 30, 100 and 300 mg/kg of test compound given by i.p. injection of a volume of 0.01 mL/g. Other doses can be used if indicated by previously known pharmacology. An animal is considered “protected” from MES-induced seizures upon abolition of the hindlimb tonic extensor component of the seizure (Swinyard et al., 1989; White et al., 1995a; White et al., 1995b).

T1 sequence (P24046 21-479 limits assumed): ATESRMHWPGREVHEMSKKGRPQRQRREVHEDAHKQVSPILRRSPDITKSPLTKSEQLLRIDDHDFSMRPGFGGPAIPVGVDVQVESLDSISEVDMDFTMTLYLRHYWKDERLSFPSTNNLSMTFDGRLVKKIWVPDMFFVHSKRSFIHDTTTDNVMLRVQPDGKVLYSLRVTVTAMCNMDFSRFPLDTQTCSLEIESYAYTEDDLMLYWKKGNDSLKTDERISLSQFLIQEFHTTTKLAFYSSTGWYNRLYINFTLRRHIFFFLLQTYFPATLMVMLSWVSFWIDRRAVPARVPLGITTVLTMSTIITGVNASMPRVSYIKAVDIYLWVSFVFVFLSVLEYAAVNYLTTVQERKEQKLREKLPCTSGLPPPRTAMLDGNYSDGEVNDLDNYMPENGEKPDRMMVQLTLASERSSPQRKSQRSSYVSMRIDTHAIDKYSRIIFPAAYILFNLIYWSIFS

## N[C@H]1C[C@@H](C(=O)O)CC1=C(F)F [CPP-115]
Human ρ1 GABAC receptors; 100 μM
  effect as agonist or antagonist at ρ1 GABAC receptors: no effect as an agonist or antagonist
Human ρ1 GABAC receptors; 100 μM alone, clamped at −60 mV
  activation of current in oocytes: did not activate a current
Human ρ1 GABAC receptors; 100 μM co-applied with GABA 1 μM, p>0.05, n=3
  reduction of the GABA response on co-application: did not significantly reduce the GABA response
Mice [1]; 32 mA
  ED50: 5.2 mg/kg
  6 Hz TPE: TPE 4 hours
Mice [1]; 44 mA
  ED50: 28.4 mg/kg
  6 Hz TPE: TPE 4 hours
[2]
  inhibitory activity at GABA transporters: no inhibitory activity
Mice [3]; Mus musculus
  ED50: 58.9 mg/kg
Mice [3]
  MES TPE: TPE 6 hours
